Consider 12 compounds from US20140135310A1, “SULPHONAMIDE DERIVATIVES OF ALICYCLIC AMINES FOR THE TREATMENT OF CENTRAL NERVOUS SYSTEM DISEASES” (Adamed Sp. z o.o., priority 2011, published 2014).

Test [1] has as its target dopaminergic receptors D3 (Homo sapiens, UniProt P35462). Briefly: Radioligand binding assay, dopaminergic D3 receptors. The conditions noted are these: test compound 1×10^−6 M. The essentials:
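Competition radioligand binding at human D2, D3 and D4.4 receptors, detected by scintillation counting; nonspecific binding defined with excess unlabelled ligand. Results as percent inhibition of control specific binding; IC50 by Hill-equation nonlinear regression; Ki via Cheng-Prusoff, with radioligand KD from Scatchard plot.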

The target of test [2] is T1, 5-HT1A receptor (rat hippocampus) (Rattus norvegicus, UniProt P19327).
T1 construct: hippocampus; from tissue; host or cells: rat hippocampus
T1 sequence (P19327 1-422): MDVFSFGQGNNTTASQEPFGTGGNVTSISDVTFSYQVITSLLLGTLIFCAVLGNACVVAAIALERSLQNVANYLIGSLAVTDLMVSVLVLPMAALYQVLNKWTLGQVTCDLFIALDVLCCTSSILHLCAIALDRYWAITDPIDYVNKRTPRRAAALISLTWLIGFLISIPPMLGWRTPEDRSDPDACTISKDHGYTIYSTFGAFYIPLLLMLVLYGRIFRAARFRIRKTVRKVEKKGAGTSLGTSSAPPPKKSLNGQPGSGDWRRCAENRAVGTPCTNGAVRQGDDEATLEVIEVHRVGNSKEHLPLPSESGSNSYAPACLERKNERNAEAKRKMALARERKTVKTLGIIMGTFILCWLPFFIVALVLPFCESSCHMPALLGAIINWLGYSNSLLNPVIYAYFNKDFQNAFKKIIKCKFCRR
Kind of test: Radioligand binding assay, serotoninergic 5-HT1A receptors. Particulars: binding assay result in %, Table 5a.

Test [3] concerns the target T2, 5-HT2A receptor (Homo sapiens, UniProt P28223).
T2 construct: purchased PerkinElmer
Kind of test: Radioligand binding assay, serotoninergic 5-HT2A receptors. Particulars: for inhibition at 1 µM: binding assay result in %, Table 5a; for Ki: read-out: Inhibition constants Ki, 5-HT2A. The essentials: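 Radioligand competition binding with scintillation counting; nonspecific binding defined by excess unlabelled ligand. Data as percent inhibition of control specific binding. IC50 by Hill-equation fit of competition curves; Ki by Cheng-Prusoff, with radioligand Kd from Scatchard plot.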

The target of test [4] is T3, 5-HT7 receptor (Homo sapiens, UniProt P34969).
T3 construct: purchased PerkinElmer
Briefly: Radioligand binding assay, serotoninergic 5-HT7 receptors. The conditions noted are these: binding assay result in %, Table 5a. The essentials: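 Competition binding at human 5-HT7 receptors with a radioligand, detected by scintillation counting; non-specific binding was defined with excess unlabelled ligand. IC50 came from Hill-equation fits of competition curves, and Ki from Cheng–Prusoff using radioligand concentration and Scatchard-derived KD.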

Test [5] has as its target T4, α2C adrenergic receptors (Homo sapiens, UniProt P18825).
T4 construct: expressed in transfected cells; host or cells: CHO cells
T4 sequence (P18825 1-462): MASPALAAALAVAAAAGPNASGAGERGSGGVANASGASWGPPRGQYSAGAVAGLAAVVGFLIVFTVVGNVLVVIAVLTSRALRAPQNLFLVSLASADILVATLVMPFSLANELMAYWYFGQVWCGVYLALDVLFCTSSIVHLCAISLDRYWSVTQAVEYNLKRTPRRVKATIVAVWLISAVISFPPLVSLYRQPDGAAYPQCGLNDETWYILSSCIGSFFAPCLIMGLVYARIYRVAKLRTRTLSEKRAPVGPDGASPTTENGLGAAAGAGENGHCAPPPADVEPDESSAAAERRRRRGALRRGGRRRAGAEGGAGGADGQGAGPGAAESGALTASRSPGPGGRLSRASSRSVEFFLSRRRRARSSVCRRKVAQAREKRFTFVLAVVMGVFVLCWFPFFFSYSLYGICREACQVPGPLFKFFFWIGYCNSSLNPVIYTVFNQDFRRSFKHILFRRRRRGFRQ
Briefly: Radioligand binding assay, adrenergic α2C receptors. The conditions noted are these: test compound 1×10^−6 M. The text has this: (§1) The specific ligand binding to the receptors is defined as the difference between the total binding and the non-specific binding determined in the presence of the excess of unlabelled ligand.
(§2) The results are expressed as a percent of control specific binding ((measured specific binding/control specific binding)×100) and as a percent inhibition of control specific binding (100−((measured specific binding/control specific binding)×100)) obtained in the presence of the test compounds. The specific ligand binding to the receptors is defined as the difference between the total binding and the nonspecific binding determined in the presence of an excess of unlabelled ligand. Scintillation counting was the method of detection of ligand binding. The IC50 values (concentration causing a half-maximal inhibition of control specific binding) were determined by non-linear regression analysis of the competition curves generated with mean replicate values using Hill equation curve fitting (Y=D+[(A−D)/(1+(C/C50)nH)], where Y=specific binding, D=minimum specific binding, A=maximum specific binding, C=compound concentration, C50=IC50, and nH=slope factor). This analysis was performed using a software developed at Cerep (Hill software) and validated by comparison with data generated by the commercial software SigmaPlot® 4.0 for Windows® (© 1997 by SPSS Inc.). The inhibition constants (Ki) were calculated using the Cheng Prusoff equation (Ki=IC50/(1+(L/KD)), where L=concentration of radioligand in the assay, and KD=affinity of the radioligand for the receptor). A scatchard plot was used to determine the Kd.
Experimental conditions for tests are given in Table 7, and results of tests for representative compounds are given in Tables 8 (α1 receptors) and in Tables 9 (α2C receptors).

The target in test [6] is T5, H1 histaminergic receptors (Homo sapiens, UniProt P35367).
T5 construct: expressed in transfected cells; host or cells: HEK-293 cells
Briefly: Radioligand binding assay, histaminergic H1 receptors. The conditions noted are these: human recombinant (HEK-293 cells), [3H]pyrilamine 1 nM.
Excerpt: as §1, §2
Experimental conditions for tests are given in Table 14, and results of tests for representative compounds are presented in Table 15.

Structures are written as SMILES.

T2 sequence (P28223 whole entry): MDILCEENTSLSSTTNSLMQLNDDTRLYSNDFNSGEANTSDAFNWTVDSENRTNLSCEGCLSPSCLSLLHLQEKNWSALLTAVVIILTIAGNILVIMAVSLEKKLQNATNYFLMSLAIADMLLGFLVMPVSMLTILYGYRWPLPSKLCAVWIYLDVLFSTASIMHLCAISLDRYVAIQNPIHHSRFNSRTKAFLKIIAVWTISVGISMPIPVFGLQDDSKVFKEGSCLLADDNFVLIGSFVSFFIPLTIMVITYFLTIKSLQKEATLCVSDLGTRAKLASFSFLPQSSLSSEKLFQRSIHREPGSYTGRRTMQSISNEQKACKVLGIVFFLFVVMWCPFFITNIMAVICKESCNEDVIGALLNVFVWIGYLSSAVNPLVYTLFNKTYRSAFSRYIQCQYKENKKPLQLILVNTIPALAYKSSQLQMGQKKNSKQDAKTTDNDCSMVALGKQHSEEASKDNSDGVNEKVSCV
T3 sequence (P34969 whole entry): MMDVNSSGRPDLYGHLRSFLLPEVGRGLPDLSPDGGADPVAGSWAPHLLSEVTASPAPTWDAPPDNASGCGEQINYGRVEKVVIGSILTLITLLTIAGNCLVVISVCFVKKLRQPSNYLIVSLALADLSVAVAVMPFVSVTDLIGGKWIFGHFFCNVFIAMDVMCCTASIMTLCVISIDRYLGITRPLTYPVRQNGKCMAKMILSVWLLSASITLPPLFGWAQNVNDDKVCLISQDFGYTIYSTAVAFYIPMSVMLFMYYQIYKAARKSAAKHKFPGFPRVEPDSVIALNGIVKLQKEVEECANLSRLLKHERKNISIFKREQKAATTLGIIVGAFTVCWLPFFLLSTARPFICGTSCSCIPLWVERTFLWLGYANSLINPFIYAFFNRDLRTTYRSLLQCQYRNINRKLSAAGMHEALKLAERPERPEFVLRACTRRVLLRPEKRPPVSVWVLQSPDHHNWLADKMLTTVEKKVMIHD
T5 sequence (P35367 whole entry): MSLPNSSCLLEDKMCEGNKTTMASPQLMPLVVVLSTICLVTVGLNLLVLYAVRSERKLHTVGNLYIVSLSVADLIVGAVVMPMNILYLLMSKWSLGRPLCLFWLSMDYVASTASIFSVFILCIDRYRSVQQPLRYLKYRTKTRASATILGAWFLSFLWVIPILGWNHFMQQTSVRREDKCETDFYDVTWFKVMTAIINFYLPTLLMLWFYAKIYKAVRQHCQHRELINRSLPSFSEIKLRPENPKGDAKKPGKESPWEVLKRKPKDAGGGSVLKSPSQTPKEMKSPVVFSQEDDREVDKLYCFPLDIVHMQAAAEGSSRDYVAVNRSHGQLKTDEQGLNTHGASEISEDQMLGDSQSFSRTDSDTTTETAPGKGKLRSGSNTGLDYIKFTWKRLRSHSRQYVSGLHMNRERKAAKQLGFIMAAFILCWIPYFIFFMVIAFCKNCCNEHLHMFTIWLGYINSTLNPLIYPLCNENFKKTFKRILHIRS
Sequence of dopaminergic receptors D3 (P35462 whole entry): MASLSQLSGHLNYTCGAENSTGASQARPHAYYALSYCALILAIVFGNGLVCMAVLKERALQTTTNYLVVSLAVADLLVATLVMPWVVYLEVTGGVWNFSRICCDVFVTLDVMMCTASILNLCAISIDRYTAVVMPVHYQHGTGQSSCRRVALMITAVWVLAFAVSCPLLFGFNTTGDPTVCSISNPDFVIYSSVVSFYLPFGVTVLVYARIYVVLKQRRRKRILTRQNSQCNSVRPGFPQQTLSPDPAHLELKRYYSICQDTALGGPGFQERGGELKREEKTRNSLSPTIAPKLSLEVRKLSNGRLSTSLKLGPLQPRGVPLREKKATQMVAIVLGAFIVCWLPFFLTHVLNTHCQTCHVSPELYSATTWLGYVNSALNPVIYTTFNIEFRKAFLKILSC

For `O=S(=O)(N[C@H]1CCN(CCCc2noc3cc(F)ccc23)C1)c1ccc2ccccc2c1` [Compound 207, N-[(3S)-1-[3-(6-Fluoro-1,2-benzoxazol-3-yl)propyl]pyrrolidin-3-yl]-naphthalene-2-sulphonamide], the inhibition (in general, the drop in the measured response relative to a control, in per cent) at 1 µM in test [1] turned out to be 85%; in test [2], 58%; in test [3] it was 100%; in test [4], 99%; in test [5], 90%; in test [6] it was 65%. The inhibitory constant (Ki) (usually the dissociation constant of the complex between target and ligand, obtained from inhibition or displacement) in test [3] is 0.5 nM.

With `O=S(=O)(N[C@@H]1CCN(CCCc2noc3cc(F)ccc23)C1)c1ccc2cc(Cl)ccc2c1` [Compound 200, 6-Chloro-N-[(3R)-1-[3-(6-fluoro-1,2-benzoxazol-3-yl)propyl]pyrrolidin-3-yl]naphthalene-2-sulphonamide], the inhibition at 1 µM in test [1] came to 94%; in test [2], 50%; in test [3] it was 99%; in test [4] it was 93%; in test [5] it was 96%. In addition, in test [3], the inhibition constant (Ki) is 2.3 nM.

As to `O=S(=O)(NCC1CCN(CCOc2cccc3c2OCCO3)C1)c1ccc2c(c1)CCO2` (stereo not shown) [Compound 306, N-[[1-[2-(2,3-Dihydro-1,4-benzodioxin-5-yloxy)ethyl]pyrrolidin-3-yl]-methyl]-2,3-dihydrobenzofuran-5-sulphonamide], the inhibition at 1 µM in test [1] stood at 26%; in test [2] it was 99%; in test [3], 81%; in test [4] it was 94%; in test [5], 98%; in test [6], 57%.

Regarding `COc1cccc(S(=O)(=O)NCC2CN(CCCc3noc4cc(F)ccc34)C2)c1` [Compound 143, N-[[1-[3-(6-Fluoro-1,2-benzoxazol-3-yl)propyl]azetidin-3-yl]methyl]-3-methoxy-benzenesulphonamide], the inhibition at 1 µM came out at 46% in test [1]; 44% in test [2]; 94% in test [3]; 87% in test [4]; 78% in test [5]; 36% in test [6].

`Cc1c(S(=O)(=O)N[C@H]2CCN(CCCc3noc4cc(F)ccc34)C2)sc2ccc(F)cc12` [Compound 203, 5-Fluoro-N-[(3S)-1-[3-(6-fluoro-1,2-benzoxazol-3-yl)propyl]pyrrolidin-3-yl]-3-methyl-benzothiophene-2-sulphonamide]: the inhibition at 1 µM in test [1] worked out at 95%; in test [2] it was 60%; in test [3] it was 99%; in test [4], 99%; in test [5], 93%; in test [6] it was 67%. Also, in test [3], the Ki came out at 0.7 nM.

On to `Cc1ccc2sc(S(=O)(=O)N[C@@H]3CCN(CCCc4noc5cc(F)ccc45)C3)cc2c1` [Compound 228, N-[(3R)-1-[3-(6-Fluoro-1,2-benzoxazol-3-yl)propyl]pyrrolidin-3-yl]-5-methyl-benzothiophene-2-sulphonamide], for which the inhibition at 1 µM in test [1] turned out to be 97%; in test [2], 27%; in test [4], 92%; in test [5] it was 95%. In addition, the Ki in test [3] amounted to 1 nM.

As to `Cn1ccc2cc(S(=O)(=O)NC3CCN(CCCc4noc5cc(F)ccc45)C3)ccc21` (stereo not shown) [Compound 218, N-[1-[3-(6-Fluoro-1,2-benzoxazol-3-yl)propyl]pyrrolidin-3-yl]-1-methyl-indole-5-sulphonamide], the inhibition at 1 µM came to 95% in test [1]; 91% in test [2]; 100% in test [3]; 98% in test [4]; 94% in test [5]; 77% in test [6].

`O=S(=O)(NCC1CCN(CCOc2cccc3c2OCCO3)C1)c1ccc(C(F)(F)F)cc1` (stereo not shown) [Compound 293, N-[[1-[2-(2,3-Dihydro-1,4-benzodioxin-5-yloxy)ethyl]pyrrolidin-3-yl]methyl]-4-(trifluoromethyl)benzenesulphonamide]: the inhibition at 1 µM in test [1] stood at 60%; in test [2] it was 100%; in test [3], 86%; in test [4], 90%; in test [5] it was 95%; in test [6] it was 38%.

For the compound `O=S(=O)(NCC1CCN(CCOc2cccc3c2OCCO3)C1)c1ccc(F)c(Cl)c1` (stereo not shown) [Compound 317, 3-Chloro-N-[[1-[2-(2,3-dihydro-1,4-benzodioxin-5-yloxy)ethyl]pyrrolidin-3-yl]methyl]-4-fluorobenzenesulphonamide], the inhibition at 1 µM in test [1] turned out to be 49%; in test [2], 100%; in test [3], 72%; in test [4] it was 95%; in test [5], 95%; in test [6] it was 47%.

With `O=S(=O)(NC1CCN(CCCc2noc3cc(F)ccc23)C1)c1cc2ccc(F)cc2s1` (stereo not shown) [Compound 234, 6-Fluoro-N-[1-[3-(6-fluoro-1,2-benzoxazol-3-yl)propyl]pyrrolidin-3-yl]benzothiophene-2-sulphonamide], the inhibition at 1 µM stood at 94% in test [1]; 45% in test [2]; 100% in test [3]; 97% in test [4]; 90% in test [5]; 75% in test [6].

As for `O=S(=O)(N[C@@H]1CCN(CCCc2noc3cc(F)ccc23)C1)c1ccc2ccccc2c1` [Compound 206, N-[(3R)-1-[3-(6-Fluoro-1,2-benzoxazol-3-yl)propyl]pyrrolidin-3-yl]naphthalene-2-sulphonamide], the inhibition at 1 µM in test [1] is 95%; in test [2] it was 68%; in test [3] it was 100%; in test [4], 100%; in test [5] it was 93%. Further, the Ki in test [3] is 0.7 nM.

As to `Cc1c(S(=O)(=O)N[C@@H]2CCN(CCCc3noc4cc(F)ccc34)C2)sc2ccc(F)cc12` [Compound 202, 5-Fluoro-N-[(3R)-1-[3-(6-fluoro-1,2-benzoxazol-3-yl)propyl]pyrrolidin-3-yl]-3-methyl-benzothiophene-2-sulphonamide], the inhibition at 1 µM was 96% in test [1]; 65% in test [2]; 99% in test [3]; 98% in test [4]; 95% in test [5]. For the same compound, the inhibitory constant (Ki) in test [3] was found to be 1.4 nM.
